Read-outs that look alike come from different tables or passages of the source.
Experiments:
[1] = test system: healthy volunteers (men and women); experiment: Physiologic parameters (electrophysiology) after nasal exposure; assay type: in vivo, human; design: Mean MA, BT (body temperature) / Mean MA, EMG (electromyogram) / Mean MA, BR (blinking reflex) / Mean MA, EEG-A (alpha cortical activity) / Mean MA, EEG-B (beta cortical activity) / Mean MA, EEG-T (theta cortical activity) / Mean MA, EDA (electrodermal activity): unit not given here; conditions: for Mean MA, BR (blinking reflex) / Mean MA, BT (body temperature) / Mean MA, EDA (electrodermal activity) / Mean MA, EEG-A (alpha cortical activity) / Mean MA, EEG-B (beta cortical activity) / Mean MA, EEG-T (theta cortical activity) / Mean MA, EMG (electromyogram) / Mean MA, HR (heart rate) / Mean MA, RR (respiration rate): 12 ng/20 min airborne nasal; for % Change MA, BR (blinking reflex) / % Change MA, EDA (electrodermal activity) / % Change MA, EEG-A (alpha cortical activity) / % Change MA, EEG-B (beta cortical activity) / % Change MA, EEG-T (theta cortical activity) / % Change MA, EMG (electromyogram) / % Change MA, HR (heart rate) / % Change MA, RR (respiration rate): 12 ng, vs baseline-2
Protocol: We assessed the resulting physiological responses and behavioral changes induced by nasal exposure to 12 ng pregna-5,20-dien-3β-ol in 76 volunteers (38 women and 38 men), age 18 to 46 (Table 1) using a placebo-controlled, single blind and crossover study design. The items of the modified DABS-70 were rearranged during consecutive administrations, in order to minimize the effect of learning.
Upon completion of the first DABS-70, each subject was invited to rest supine in a comfortable medical bed in a quiet room and several non-invasive electrode leads and transducers were positioned on the surface skin of the arms, face and skull to help measure physiologic parameters (FIG. 4). A conventional grounding electrode and a reference electrode lead were positioned on the surface skin of the mastoid process and the right ear lobe respectively, with the aid of hypoallergenic conductive paste. Other non-invasive standard electrode-leads and transducers were used for recording the following physiologic parameters: • Electrocardiogram (EKG), standard bipolar I. • Electropneumogram (EPG), strain gauge around lower thorax. • Electrodermal activity (EDA), palm surface of 3rd and 4th finger (right hand). • Blinking reflex (BR), upper and lower left eye-lid. • Electromyogram (EMG), bilaterally in chin area. • Body temperature (BT), mini-thermistor probe in external ear canal. • Electroencephalogram (EEG), CzA2 and T4A2 from the […] International EEG electrode placement chart.
During the course of a recording session, physiologic readings were performed in four consecutive instances, before and after randomized administration of active substance or control (FIG. 4): PHYS-1 recording, starting 5 minutes before the first randomized dosing; PHYS-2, starting 15 minutes after administration of the first randomized dosing; PHYS-3, starting 5 minutes before administration of the second randomized dosing; and PHYS-4 starting 15 minutes after administration of the second randomized dosing.
All physiological recordings were pre-amplified and digitized (Biopac Systems), and continuously computer monitored and stored (Macintosh G3), for further off-line processing and analysis (for a detailed explanation see Monti-Bloch et al, 1994, 1998).
Active substance (pregna-5,20-dien-3β-ol) and control were freshly prepared on 0.7 cm×10 cm perfumery grade smelling strips 24 hours before the experiment. A perfumery grade smelling strip was positioned on the upper lip of the subject for delivery of control or active substance to the nasal passages for a period of 20 minutes. Each breath carried vapors of pregna-5,20-dien-3β-ol or control (air) from the paper strip to the nasal passages.
Perfumery grade smelling strips containing either pregna-5,20-dien-3β-ol or control were prepared as follows: 100 μl of stock solution containing 100 mg pregna-5,20-dien-3β-ol/10 mL ethanol (95%) was added to a clean paper strip. Ethanol was allowed to evaporate overnight in a clean fume hood, and 1 mg of dry crystals of pregna-5,20-dien-3β-ol remained embedded in the dried perfumery grade smelling strip. Control was a perfumery grade smelling strip prepared following the same procedure but the solution was devoid of active substance.
The following assumptions were used to calculate the quantity of pregna-5,20-dien-3β-ol delivered to the nasal passages during a study session: a) the quantity of pregna-5,20-dien-3β-ol arriving to the nasal passages with each breath is ≈40 pg (determined as described below); b) the average respiratory rate at rest in men and women is ≈15 breaths per minute; and c) the subject was exposed to pregna-5,20-dien-3β-ol for 20 min during the entire study session. The total calculated quantity of pregna-5,20-dien-3β-ol delivered to the nasal passages over 20 min (exposure during the study session) was calculated as follows: 40 pg/breath×15 breaths/min×20 min=12000 pg=12 ng. […]

[2] = target: T1, human testicular 17α Hydroxylase/C17-20-Lyase (Homo sapiens, UniProt P05093); conditions: Li et al. 1996; Brodie et al. U.S. Pat. No. 5,994,334; cited from earlier work
T1 sequence (P05093 1-508): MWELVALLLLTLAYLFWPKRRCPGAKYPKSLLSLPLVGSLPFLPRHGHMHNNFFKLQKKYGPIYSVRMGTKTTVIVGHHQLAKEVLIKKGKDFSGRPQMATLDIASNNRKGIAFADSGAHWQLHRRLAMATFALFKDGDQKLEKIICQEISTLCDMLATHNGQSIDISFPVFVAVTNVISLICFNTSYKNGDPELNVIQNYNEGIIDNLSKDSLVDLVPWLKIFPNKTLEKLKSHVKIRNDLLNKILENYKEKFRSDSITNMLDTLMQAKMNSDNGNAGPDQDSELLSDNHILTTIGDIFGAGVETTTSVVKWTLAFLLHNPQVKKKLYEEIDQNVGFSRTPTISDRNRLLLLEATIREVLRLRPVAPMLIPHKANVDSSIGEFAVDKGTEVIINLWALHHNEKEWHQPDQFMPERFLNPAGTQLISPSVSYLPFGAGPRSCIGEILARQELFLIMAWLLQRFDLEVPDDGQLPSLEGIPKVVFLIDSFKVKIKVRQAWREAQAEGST

[3] = test system: peripheral nasal chemosensory receptors; conditions: cited from earlier work; for Cross adaptation / fatigue of the receptors toward androstadienone: repeated stimulation, local electrical response of human vomeronasal epithelium, Monti-Bloch et al. 1994
[4] = men, listed as Pregna-5,20-dien-3β-ol
[5] = women, listed as Pregna-5,20-dien-3β-ol

C=C[C@H]1CC[C@H]2[C@@H]3CC=C4C[C@@H](O)CC[C@]4(C)[C@H]3CC[C@]12C [pregna-5,20-dien-3β-ol, Pregna-5,20-dien-3β-ol]
Mean MA, BR (blinking reflex) ([1]; men): 25.970
Mean MA, BT (body temperature) ([1]; men): −0.011
Mean MA, EDA (electrodermal activity) ([1]; men): 3.467
Mean MA, EEG-A (alpha cortical activity) ([1]; men): 29.613
Mean MA, EEG-B (beta cortical activity) ([1]; men): 57.853
Mean MA, EEG-T (theta cortical activity) ([1]; men): 17.630
Mean MA, EMG (electromyogram) ([1]; men): 20.067
Mean MA, HR (heart rate) ([1]; men): 66.323
Mean MA, RR (respiration rate) ([1]; men): 13.133
% Change MA, BR (blinking reflex) ([1]; men): −22.392%
% Change MA, EDA (electrodermal activity) ([1]; men): 44.458%
% Change MA, EEG-A (alpha cortical activity) ([1]; men): 2.798%
% Change MA, EEG-B (beta cortical activity) ([1]; men): −13.691%
% Change MA, EEG-T (theta cortical activity) ([1]; men): 14.036%
% Change MA, EMG (electromyogram) ([1]; men): 64.524%
% Change MA, HR (heart rate) ([1]; men): −2.609%
% Change MA, RR (respiration rate) ([1]; men): −19.097%
% Change MA, EEG-A (alpha cortical activity) [1, 4]: did not have a significant effect
% Change MA, EEG-B (beta cortical activity) [1, 4]: did not have a significant effect
% Change MA, HR (heart rate) [1, 4]: −2.6%
Mean MA, BR (blinking reflex) ([1]; women): 28.483
Mean MA, BT (body temperature) ([1]; women): 0.064
Mean MA, EDA (electrodermal activity) ([1]; women): 3.379
Mean MA, EEG-A (alpha cortical activity) ([1]; women): 27.724
Mean MA, EEG-B (beta cortical activity) ([1]; women): 61.069
Mean MA, EEG-T (theta cortical activity) ([1]; women): 17.897
Mean MA, EMG (electromyogram) ([1]; women): 25.276
Mean MA, HR (heart rate) ([1]; women): 64.828
Mean MA, RR (respiration rate) ([1]; women): 13.379
% Change MA, BR (blinking reflex) ([1]; women): −31.859%
% Change MA, EDA (electrodermal activity) ([1]; women): 71.784%
% Change MA, EEG-A (alpha cortical activity) ([1]; women): −14.871%
% Change MA, EEG-B (beta cortical activity) ([1]; women): −1.023%
% Change MA, EEG-T (theta cortical activity) ([1]; women): 24.001%
% Change MA, EMG (electromyogram) ([1]; women): 55.545%
% Change MA, HR (heart rate) ([1]; women): −3.000%
% Change MA, RR (respiration rate) ([1]; women): −16.030%
% Change MA, EEG-A (alpha cortical activity) [1, 5]: did not have a significant effect
% Change MA, EEG-B (beta cortical activity) [1, 5]: did not have a significant effect
% Change MA, HR (heart rate) [1, 5]: −3.0%
% Change MA, RR (respiration rate) [1, 5]: −16.03%
Inhibition of human testicular 17α Hydroxylase/C17-20-Lyase [2]: little activity
Depolarization of the electrogram of peripheral nasal chemosensory receptors ([3]; androstadienone 27 picograms, muricin aglycone 30 picograms, adapted from Monti-Bloch et al. (1994)): robust depolarization
Cross adaptation / fatigue of the receptors toward androstadienone ([3]; listed as Muricin aglycone): elicit cross adaptation
Cross adaptation / fatigue of the receptors toward androstadienone ([3]; listed as muricin aglycone): produces fatigue of the receptors
